Converted amounts (≈) assume the structure as drawn. The source made the active and inactive calls. No cut-off for these calls is given here.
Assays:
Candida albicans = experiment: Antifungal activity against Candida albicans ATCC 44859 after 24 to 48 hrs by broth micro dilution method; assay type: functional, organism-based
Nakaseomyces glabratus = experiment: Antifungal activity against Candida glabrata 20/I after 24 to 48 hrs by broth micro dilution method; assay type: functional, organism-based
Mycobacterium kansasii [1] = experiment: Antimycobacterial activity against Mycobacterium kansasii My 235/80 after 7 days by micromethod; assay type: functional; details: My 235/80, 168 h
Trichosporon asahii = experiment: Antifungal activity against Trichosporon asahii 1188 after 24 to 48 hrs by broth micro dilution method; assay type: functional, organism-based
Escherichia coli = experiment: Antibacterial activity against Escherichia coli ATCC 8739 after 24 to 48 hrs by broth micro dilution method; assay type: functional, organism-based
Pichia kudriavzevii = experiment: Antifungal activity against Candida krusei E28 after 24 to 48 hrs by broth micro dilution method; assay type: functional, organism-based
Salmonella typhimurium [2] = experiment: Mutagenic activity in Salmonella typhimurium TA98 assessed as induction of reverse mutation at 50 uM; assay type: toxicity, organism-based; details: salmonella enterica subsp. enterica serovar typhimurium
[3] = system: Trichophyton mentagrophytes; experiment: Antifungal activity against Trichophyton mentagrophytes 445 after 72 to 120 hrs by broth micro dilution method; assay type: functional, organism-based
[4] = Cytotoxicity against CHOK1 cells assessed as viability after 24 hrs by MTT assay; assay type: cell-based; details: Cricetulus griseus, CHO-K1, 24 h
Mycobacterium kansasii [5] = experiment: Antimycobacterial activity against Mycobacterium kansasii 6509/96 after 21 days by micromethod; assay type: functional; details: 6509/96, 504 h
Mycobacterium kansasii [6] = experiment: Antimycobacterial activity against Mycobacterium kansasii 6509/96 after 14 days by micromethod; assay type: functional; details: 6509/96, 336 h
Mycobacterium kansasii [7] = experiment: Antimycobacterial activity against Mycobacterium kansasii My 235/80 after 21 days by micromethod; assay type: functional; details: My 235/80, 504 h
Klebsiella pneumoniae [8] = experiment: Antibacterial activity against Klebsiella pneumoniae D 11750/08 after 24 to 48 hrs by broth micro dilution method; assay type: functional, organism-based
Candida tropicalis = experiment: Antifungal activity against Candida tropicalis 156 after 24 to 48 hrs by broth micro dilution method; assay type: functional, organism-based
Staphylococcus aureus [9] = experiment: Antibacterial activity against methicillin-resistant Staphylococcus aureus H 5996/08 after 24 to 48 hrs by broth micro dilution method; assay type: functional, organism-based
Klebsiella pneumoniae [10] = experiment: Antibacterial activity against Klebsiella pneumoniae J 14368/08 after 24 to 48 hrs by broth micro dilution method; assay type: functional, organism-based
Mycobacterium kansasii [11] = experiment: Antimycobacterial activity against Mycobacterium kansasii My 235/80 after 14 days by micromethod; assay type: functional; details: My 235/80, 336 h
Klebsiella pneumoniae [12] = experiment: Antibacterial activity against ESBL positive Klebsiella pneumoniae J 14368/08 after 24 to 48 hrs by broth micro dilution method; assay type: functional, organism-based
Staphylococcus aureus [13] = experiment: Antibacterial activity against Staphylococcus aureus ATCC 6538 after 24 to 48 hrs by broth micro dilution method; assay type: functional, organism-based
Pseudomonas aeruginosa = experiment: Antibacterial activity against Pseudomonas aeruginosa ATCC 9027 after 24 to 48 hrs by broth micro dilution method; assay type: functional, organism-based
[14] = system: Mycobacterium tuberculosis; experiment: Antimycobacterial activity against Mycobacterium tuberculosis My 331/88 after 14 days by micromethod; assay type: functional; details: My 331/88, 336 h
Salmonella typhimurium [15] = experiment: Mutagenic activity in Salmonella typhimurium TA100 assessed as induction of reverse mutation at 50 uM; assay type: toxicity, organism-based; details: salmonella enterica subsp. enterica serovar typhimurium
Aspergillus fumigatus = experiment: Antifungal activity against Aspergillus fumigatus 2318 after 24 to 48 hrs by broth micro dilution method; assay type: functional, organism-based
Mycobacterium avium [16] = experiment: Antimycobacterial activity against Mycobacterium avium My 330/88 after 21 days by micromethod; assay type: functional; details: My 330/88, 504 h
Mycobacterium avium [17] = experiment: Antimycobacterial activity against Mycobacterium avium My 330/88 after 14 days by micromethod; assay type: functional; details: My 330/88, 336 h
Lichtheimia corymbifera = experiment: Antifungal activity against Absidia corymbifera 272 after 24 to 48 hrs by broth micro dilution method; assay type: functional, organism-based
Mycobacterium kansasii [18] = experiment: Antimycobacterial activity against Mycobacterium kansasii 6509/96 after 7 days by micromethod; assay type: functional; details: 6509/96, 168 h
[19] = system: Staphylococcus epidermidis; experiment: Antibacterial activity against Staphylococcus epidermidis H 6966/08 after 24 to 48 hrs by broth micro dilution method; assay type: functional, organism-based
Enterococcus faecalis = experiment: Antibacterial activity against Enterococcus faecalis J 14365/08 after 24 to 48 hrs by broth micro dilution method; assay type: functional, organism-based
[20] = system: Mycobacterium tuberculosis; experiment: Antimycobacterial activity against Mycobacterium tuberculosis My 331/88 after 21 days by micromethod; assay type: functional; details: My 331/88, 504 h
Heme oxygenase 1 = target: T1, Heme oxygenase 1 (Homo sapiens, UniProt P09601); experiment: Inhibition of heme oxygenase-1 (unknown origin)
T1 sequence (P09601 whole entry): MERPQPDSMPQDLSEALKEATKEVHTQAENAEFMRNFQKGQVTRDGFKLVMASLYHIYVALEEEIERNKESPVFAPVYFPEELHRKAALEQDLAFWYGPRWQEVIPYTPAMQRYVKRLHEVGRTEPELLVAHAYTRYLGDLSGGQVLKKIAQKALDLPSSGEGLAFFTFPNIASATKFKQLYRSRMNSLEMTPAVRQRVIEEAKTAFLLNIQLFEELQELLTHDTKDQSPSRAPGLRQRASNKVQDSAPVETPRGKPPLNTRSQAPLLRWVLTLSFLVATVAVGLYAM

## O=[N+]([O-])c1cc(CSc2nnnn2Cc2ccccc2)cc([N+](=O)[O-])c1
Candida albicans
  Activity: inactive
Nakaseomyces glabratus
  Activity: inactive
Mycobacterium kansasii [1]
  MIC: 2 µM (≈ 0.745 µg/mL)
Trichosporon asahii
  Activity: inactive
Escherichia coli
  Activity: inactive
Pichia kudriavzevii
  Activity: inactive
Salmonella typhimurium [2]
  Activity: Non-toxic
[3]
  Activity: inactive
[4]
  IC50: 59 µM
Mycobacterium kansasii [5]
  MIC: 4 µM (≈ 1.49 µg/mL)
Mycobacterium kansasii [6]
  MIC: 4 µM (≈ 1.49 µg/mL)
Mycobacterium kansasii [7]
  MIC: 8 µM (≈ 2.98 µg/mL)
Klebsiella pneumoniae [8]
  Activity: inactive
Candida tropicalis
  Activity: inactive
Staphylococcus aureus [9]
  Activity: inactive
Klebsiella pneumoniae [10]
  Activity: inactive
Mycobacterium kansasii [11]
  MIC: 8 µM (≈ 2.98 µg/mL)
Klebsiella pneumoniae [12]
  Activity: inactive
Staphylococcus aureus [13]
  Activity: inactive
Pseudomonas aeruginosa
  Activity: inactive
[14]
  MIC: 1 µM (≈ 0.372 µg/mL)
Salmonella typhimurium [15]
  Activity: Non-toxic
Aspergillus fumigatus
  Activity: inactive
Mycobacterium avium [16]
  MIC: 250 µM (≈ 93.1 µg/mL)
Mycobacterium avium [17]
  MIC: 250 µM (≈ 93.1 µg/mL)
Lichtheimia corymbifera
  Activity: inactive
Mycobacterium kansasii [18]
  MIC: 2 µM (≈ 0.745 µg/mL)
[19]
  Activity: inactive
Enterococcus faecalis
  Activity: inactive
[20]
  MIC: 2 µM (≈ 0.745 µg/mL)

## O=[N+]([O-])c1cc(C[Se]c2nnn(Cc3ccccc3)n2)cc([N+](=O)[O-])c1
Candida albicans
  Activity: inactive
Nakaseomyces glabratus
  Activity: inactive
Mycobacterium kansasii [1]
  MIC: 1 µM (≈ 0.419 µg/mL)
Trichosporon asahii
  Activity: inactive
Escherichia coli
  Activity: inactive
Pichia kudriavzevii
  Activity: inactive
Salmonella typhimurium [2]
  Activity: Toxic
[3]
  Activity: inactive
[4]
  IC50: 136 µM
Mycobacterium kansasii [5]
  MIC: 2 µM (≈ 0.839 µg/mL)
Mycobacterium kansasii [6]
  MIC: 1 µM (≈ 0.419 µg/mL)
Mycobacterium kansasii [7]
  MIC: 1 µM (≈ 0.419 µg/mL)
Klebsiella pneumoniae [8]
  Activity: inactive
Candida tropicalis
  Activity: inactive
Staphylococcus aureus [9]
  Activity: inactive
Klebsiella pneumoniae [10]
  Activity: inactive
Mycobacterium kansasii [11]
  MIC: 1 µM (≈ 0.419 µg/mL)
Klebsiella pneumoniae [12]
  Activity: inactive
Staphylococcus aureus [13]
  Activity: inactive
Pseudomonas aeruginosa
  Activity: inactive
[14]
  MIC: 1 µM (≈ 0.419 µg/mL)
Salmonella typhimurium [15]
  Activity: Toxic
Aspergillus fumigatus
  Activity: inactive
Mycobacterium avium [16]
  MIC: 32 µM (≈ 13.4 µg/mL)
Mycobacterium avium [17]
  MIC: 16 µM (≈ 6.71 µg/mL)
Lichtheimia corymbifera
  Activity: inactive
Mycobacterium kansasii [18]
  MIC: 1 µM (≈ 0.419 µg/mL)
[19]
  Activity: inactive
Enterococcus faecalis
  Activity: inactive
[20]
  MIC: 1 µM (≈ 0.419 µg/mL)

## O=[N+]([O-])c1cc(C[Se]c2nnnn2Cc2ccccc2)cc([N+](=O)[O-])c1
Candida albicans
  Activity: inactive
Nakaseomyces glabratus
  Activity: inactive
Mycobacterium kansasii [1]
  MIC: 2 µM (≈ 0.839 µg/mL)
Trichosporon asahii
  Activity: inactive
Escherichia coli
  Activity: inactive
Pichia kudriavzevii
  Activity: inactive
Salmonella typhimurium [2]
  Activity: Toxic
[3]
  Activity: inactive
[4]
  IC50: 71 µM
Mycobacterium kansasii [5]
  MIC: 8 µM (≈ 3.35 µg/mL)
Mycobacterium kansasii [6]
  MIC: 8 µM (≈ 3.35 µg/mL)
Mycobacterium kansasii [7]
  MIC: 4 µM (≈ 1.68 µg/mL)
Klebsiella pneumoniae [8]
  Activity: inactive
Candida tropicalis
  Activity: inactive
Staphylococcus aureus [9]
  Activity: inactive
Klebsiella pneumoniae [10]
  Activity: inactive
Mycobacterium kansasii [11]
  MIC: 4 µM (≈ 1.68 µg/mL)
Klebsiella pneumoniae [12]
  Activity: inactive
Staphylococcus aureus [13]
  Activity: inactive
Pseudomonas aeruginosa
  Activity: inactive
[14]
  MIC: 1 µM (≈ 0.419 µg/mL)
Salmonella typhimurium [15]
  Activity: Toxic
Aspergillus fumigatus
  Activity: inactive
Mycobacterium avium [16]
  MIC: 32 µM (≈ 13.4 µg/mL)
Mycobacterium avium [17]
  MIC: 32 µM (≈ 13.4 µg/mL)
Lichtheimia corymbifera
  Activity: inactive
Mycobacterium kansasii [18]
  MIC: 4 µM (≈ 1.68 µg/mL)
[19]
  Activity: inactive
Enterococcus faecalis
  Activity: inactive
[20]
  MIC: 2 µM (≈ 0.839 µg/mL)

## O=[N+]([O-])c1cc(CSc2nnn(Cc3ccc(Cl)cc3)n2)cc([N+](=O)[O-])c1
Mycobacterium kansasii [1]
  MIC: 4 µM (≈ 1.63 µg/mL)
Salmonella typhimurium [2]
  Activity: Toxic
[4]
  IC50: 301 µM
Mycobacterium kansasii [5]
  MIC: 32 µM (≈ 13 µg/mL)
Mycobacterium kansasii [6]
  MIC: 16 µM (≈ 6.51 µg/mL)
Mycobacterium kansasii [7]
  MIC: 16 µM (≈ 6.51 µg/mL)
Mycobacterium kansasii [11]
  MIC: 8 µM (≈ 3.25 µg/mL)
[14]
  MIC: 1 µM (≈ 0.407 µg/mL)
Salmonella typhimurium [15]
  Activity: Toxic
Mycobacterium avium [16]
  MIC: 16 µM (≈ 6.51 µg/mL)
Mycobacterium avium [17]
  MIC: 16 µM (≈ 6.51 µg/mL)
Mycobacterium kansasii [18]
  MIC: 16 µM (≈ 6.51 µg/mL)
[20]
  MIC: 2 µM (≈ 0.814 µg/mL)

## O=[N+]([O-])c1cc(CSc2nnn(Cc3ccccc3)n2)cc([N+](=O)[O-])c1
Candida albicans
  Activity: inactive
Nakaseomyces glabratus
  Activity: inactive
Mycobacterium kansasii [1]
  MIC: 8 µM (≈ 2.98 µg/mL)
Trichosporon asahii
  Activity: inactive
Escherichia coli
  Activity: inactive
Pichia kudriavzevii
  Activity: inactive
Salmonella typhimurium [2]
  Activity: Toxic
[3]
  Activity: inactive
[4]
  IC50: 41 µM
Mycobacterium kansasii [5]
  MIC: 8 µM (≈ 2.98 µg/mL)
Mycobacterium kansasii [6]
  MIC: 4 µM (≈ 1.49 µg/mL)
Mycobacterium kansasii [7]
  MIC: 16 µM (≈ 5.96 µg/mL)
Klebsiella pneumoniae [8]
  Activity: inactive
Candida tropicalis
  Activity: inactive
Staphylococcus aureus [9]
  Activity: inactive
Klebsiella pneumoniae [10]
  Activity: inactive
Mycobacterium kansasii [11]
  MIC: 16 µM (≈ 5.96 µg/mL)
Klebsiella pneumoniae [12]
  Activity: inactive
Staphylococcus aureus [13]
  Activity: inactive
Pseudomonas aeruginosa
  Activity: inactive
[14]
  MIC: 1 µM (≈ 0.372 µg/mL)
Salmonella typhimurium [15]
  Activity: Toxic
Aspergillus fumigatus
  Activity: inactive
Mycobacterium avium [16]
  MIC: 125 µM (≈ 46.5 µg/mL)
Mycobacterium avium [17]
  MIC: 62 µM (≈ 23.1 µg/mL)
Lichtheimia corymbifera
  Activity: inactive
Mycobacterium kansasii [18]
  MIC: 4 µM (≈ 1.49 µg/mL)
[19]
  Activity: inactive
Enterococcus faecalis
  Activity: inactive
[20]
  MIC: 1 µM (≈ 0.372 µg/mL)

## O=C(CCc1ccccc1)Cn1cnnn1
Heme oxygenase 1
  IC50: 2.6 µM

## O=[N+]([O-])c1cc(CSc2nnnn2Cc2ccc(Cl)cc2)cc([N+](=O)[O-])c1
Mycobacterium kansasii [1]
  MIC: 2 µM (≈ 0.814 µg/mL)
Salmonella typhimurium [2]
  Activity: Toxic
[4]
  IC50: 94 µM
Mycobacterium kansasii [5]
  MIC: 8 µM (≈ 3.25 µg/mL)
Mycobacterium kansasii [6]
  MIC: 8 µM (≈ 3.25 µg/mL)
Mycobacterium kansasii [7]
  MIC: 4 µM (≈ 1.63 µg/mL)
Mycobacterium kansasii [11]
  MIC: 2 µM (≈ 0.814 µg/mL)
[14]
  MIC: 2 µM (≈ 0.814 µg/mL)
Salmonella typhimurium [15]
  Activity: Toxic
Mycobacterium avium [16]
  MIC: 125 µM (≈ 50.9 µg/mL)
Mycobacterium avium [17]
  MIC: 125 µM (≈ 50.9 µg/mL)
Mycobacterium kansasii [18]
  MIC: 4 µM (≈ 1.63 µg/mL)
[20]
  MIC: 4 µM (≈ 1.63 µg/mL)

Reference: ChEMBL document CHEMBL3621085, “Tetrazole regioisomers in the development of nitro group-containing antitubercular agents” (Medchemcomm, 2015)
